# Data published in article PMC7530726, “A structure-based computational workflow to predict liability and binding modes of small molecules to hERG” (Scientific Reports, 2020).
# “And” between values parts separate entries of the source, which are not always exact repeats. Equal values may be shown once. Read-outs that look alike come from different tables or passages of the source.
# How the values were obtained:
# hERG = details: cited from earlier work
# WT hERG = molecular target: T1, WT hERG (Homo sapiens, UniProt Q12809); experiment: Predictor hERG Fluorescence Polarization Assay kit; type: binding
# T1 construct: purchased Life Technologies
# T1 sequence (Q12809 whole entry): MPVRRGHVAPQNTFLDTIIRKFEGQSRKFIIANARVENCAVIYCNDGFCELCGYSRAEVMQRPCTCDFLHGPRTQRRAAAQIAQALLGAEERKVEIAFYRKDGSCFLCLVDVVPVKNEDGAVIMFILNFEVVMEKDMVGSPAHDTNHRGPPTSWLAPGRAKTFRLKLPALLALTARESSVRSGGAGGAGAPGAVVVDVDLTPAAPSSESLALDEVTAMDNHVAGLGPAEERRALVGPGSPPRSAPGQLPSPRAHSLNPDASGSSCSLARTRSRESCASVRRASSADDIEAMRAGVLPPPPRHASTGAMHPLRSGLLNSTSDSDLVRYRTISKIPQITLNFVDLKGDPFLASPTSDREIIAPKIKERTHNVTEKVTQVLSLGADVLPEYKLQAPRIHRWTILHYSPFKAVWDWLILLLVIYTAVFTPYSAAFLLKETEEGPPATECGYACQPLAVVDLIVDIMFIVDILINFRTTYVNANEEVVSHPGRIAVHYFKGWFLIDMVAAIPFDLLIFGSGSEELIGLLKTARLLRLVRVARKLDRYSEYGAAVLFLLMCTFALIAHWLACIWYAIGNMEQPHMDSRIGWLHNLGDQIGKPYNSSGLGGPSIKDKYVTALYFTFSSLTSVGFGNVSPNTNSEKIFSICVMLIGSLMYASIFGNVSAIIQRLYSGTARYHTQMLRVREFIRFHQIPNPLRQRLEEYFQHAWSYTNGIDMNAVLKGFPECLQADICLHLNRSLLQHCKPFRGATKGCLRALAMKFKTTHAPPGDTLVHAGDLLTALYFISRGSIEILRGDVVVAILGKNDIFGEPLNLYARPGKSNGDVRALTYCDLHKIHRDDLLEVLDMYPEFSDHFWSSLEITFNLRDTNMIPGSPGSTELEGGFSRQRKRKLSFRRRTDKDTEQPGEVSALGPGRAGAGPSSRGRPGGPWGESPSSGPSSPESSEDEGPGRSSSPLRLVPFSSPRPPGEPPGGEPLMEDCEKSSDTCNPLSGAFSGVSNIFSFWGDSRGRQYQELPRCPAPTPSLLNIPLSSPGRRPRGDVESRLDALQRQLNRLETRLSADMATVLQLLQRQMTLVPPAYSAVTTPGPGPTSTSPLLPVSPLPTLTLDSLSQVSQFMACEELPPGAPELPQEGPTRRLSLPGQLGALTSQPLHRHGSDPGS
# Protocol: All measurements were made according to the manufacturer’s instruction. Fluorescence polarization was measured using PerkinElmer EnVision® Multilabel reader (PerkinElmer, Woodbridge, ON, Canada).
# hERG WT [1] = molecular target: T2, hERG WT (Homo sapiens, UniProt Q12809); details: 1 µM
# T2 sequence (Q12809 whole entry): as above
# hERG Y652A [2] = molecular target: T3, hERG Y652A (Homo sapiens, UniProt Q12809, Y652A); details: 1 µM
# T3 sequence (Q12809 whole entry Y652A): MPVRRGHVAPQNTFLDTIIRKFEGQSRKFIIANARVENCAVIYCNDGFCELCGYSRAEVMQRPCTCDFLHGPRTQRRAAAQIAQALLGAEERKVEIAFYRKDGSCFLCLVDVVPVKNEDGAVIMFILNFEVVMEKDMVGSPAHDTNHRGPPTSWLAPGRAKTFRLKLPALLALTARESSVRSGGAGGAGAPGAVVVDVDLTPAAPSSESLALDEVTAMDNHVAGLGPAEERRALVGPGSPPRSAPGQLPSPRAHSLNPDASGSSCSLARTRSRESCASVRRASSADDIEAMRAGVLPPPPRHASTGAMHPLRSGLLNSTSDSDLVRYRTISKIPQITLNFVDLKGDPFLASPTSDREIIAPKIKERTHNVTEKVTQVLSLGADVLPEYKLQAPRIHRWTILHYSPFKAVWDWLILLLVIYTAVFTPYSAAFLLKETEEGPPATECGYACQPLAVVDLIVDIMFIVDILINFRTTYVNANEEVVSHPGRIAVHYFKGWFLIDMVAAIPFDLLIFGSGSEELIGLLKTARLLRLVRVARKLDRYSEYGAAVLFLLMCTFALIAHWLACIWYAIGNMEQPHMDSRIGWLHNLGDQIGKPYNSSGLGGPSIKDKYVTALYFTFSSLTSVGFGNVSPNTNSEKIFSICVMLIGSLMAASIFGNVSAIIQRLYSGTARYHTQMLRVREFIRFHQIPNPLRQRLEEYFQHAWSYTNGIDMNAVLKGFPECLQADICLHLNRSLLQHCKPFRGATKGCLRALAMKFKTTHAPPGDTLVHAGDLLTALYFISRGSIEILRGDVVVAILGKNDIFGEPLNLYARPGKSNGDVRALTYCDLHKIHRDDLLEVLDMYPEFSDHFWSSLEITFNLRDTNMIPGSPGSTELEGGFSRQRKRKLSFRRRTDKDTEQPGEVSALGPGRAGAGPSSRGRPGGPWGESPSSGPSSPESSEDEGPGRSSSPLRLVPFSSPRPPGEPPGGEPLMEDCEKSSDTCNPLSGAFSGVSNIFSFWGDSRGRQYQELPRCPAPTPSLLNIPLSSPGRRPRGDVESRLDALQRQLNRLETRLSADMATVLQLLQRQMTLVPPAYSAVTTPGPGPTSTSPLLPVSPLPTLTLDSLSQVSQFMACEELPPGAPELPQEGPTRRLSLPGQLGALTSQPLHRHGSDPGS
# hERG F656A [3] = molecular target: T4, hERG F656A (Homo sapiens, UniProt Q12809, F656A); details: 1 µM
# T4 sequence (Q12809 whole entry F656A): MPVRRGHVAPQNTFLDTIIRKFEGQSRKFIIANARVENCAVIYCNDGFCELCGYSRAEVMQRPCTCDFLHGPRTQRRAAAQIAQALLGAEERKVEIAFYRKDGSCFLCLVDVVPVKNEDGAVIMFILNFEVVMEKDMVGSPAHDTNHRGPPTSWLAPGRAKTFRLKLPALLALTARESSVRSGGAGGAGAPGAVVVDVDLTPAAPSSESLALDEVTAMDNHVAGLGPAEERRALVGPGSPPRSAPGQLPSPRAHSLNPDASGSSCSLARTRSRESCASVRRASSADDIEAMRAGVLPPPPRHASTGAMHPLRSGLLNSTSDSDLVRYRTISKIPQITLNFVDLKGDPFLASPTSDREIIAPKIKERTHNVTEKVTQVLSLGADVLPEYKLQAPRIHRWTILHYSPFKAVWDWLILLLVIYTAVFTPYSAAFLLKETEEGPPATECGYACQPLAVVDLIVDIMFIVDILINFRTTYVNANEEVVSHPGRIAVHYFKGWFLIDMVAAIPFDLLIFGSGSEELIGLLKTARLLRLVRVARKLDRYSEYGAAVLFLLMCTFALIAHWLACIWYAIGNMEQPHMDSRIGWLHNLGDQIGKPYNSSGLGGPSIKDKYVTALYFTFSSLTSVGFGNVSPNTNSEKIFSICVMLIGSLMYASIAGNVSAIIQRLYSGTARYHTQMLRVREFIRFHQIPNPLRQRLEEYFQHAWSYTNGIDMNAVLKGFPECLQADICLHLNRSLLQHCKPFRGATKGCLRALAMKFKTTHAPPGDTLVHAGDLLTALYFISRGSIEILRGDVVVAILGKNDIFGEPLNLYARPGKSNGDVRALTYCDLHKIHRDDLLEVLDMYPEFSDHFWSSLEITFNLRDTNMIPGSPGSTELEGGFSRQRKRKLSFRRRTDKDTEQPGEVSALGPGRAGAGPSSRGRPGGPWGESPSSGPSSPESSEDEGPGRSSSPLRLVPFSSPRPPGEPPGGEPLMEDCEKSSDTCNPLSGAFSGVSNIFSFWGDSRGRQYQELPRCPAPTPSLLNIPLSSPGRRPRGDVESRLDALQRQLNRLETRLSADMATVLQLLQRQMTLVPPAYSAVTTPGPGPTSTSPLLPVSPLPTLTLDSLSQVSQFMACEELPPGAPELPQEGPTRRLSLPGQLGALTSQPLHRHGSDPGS
# hERG WT [4] = molecular target: T2, hERG WT; experiment: in vitro; details: Percent current inhibition hERG WT
# hERG Y652A [5] = molecular target: T3, hERG Y652A; experiment: in vitro; details: pH 7.4, Percent current inhibition hERG Y652A
# hERG F656A [6] = molecular target: T4, hERG F656A; experiment: in vitro
# hERG WT [7] = molecular target: T2, hERG WT
# hERG Y652A [8] = molecular target: T3, hERG Y652A; experiment: Whole-cell patch clamp (automated), HEK cells stably expressing hERGY652A
# [9] = test system: serotonin 5-hydroxytryptamine receptor 4 (5HT-4); details: cited from earlier work
# hERG F656A [10] = molecular target: T4, hERG F656A; experiment: Whole-cell patch clamp (manual, 135 mM K+), HEK cells stably expressing hERGF656A
# [11] = read-out: hERG IC50 from literature, Patch clamp HEK293 cells @ 34 ± 1 °C, ref Wu et al.
# [12] = pH 7.4, Percent current inhibition hERG F656A
# [13] = pH 7.4, reduction in the inhibition of F656A mutant when compared to the WT
# [14] = read-out: hERG IC50 from literature, Patch clamp HEK293 cells @ 23 ± 1 °C, ref Toga et al.
smiles,measurement,setting,value
Cc1cccc(C)c1NC(=O)CC12CCCN1CCC2 [Pilsicainide],IC50,hERG; read-out: hERG IC50,< 30 µM and ~20 µM
same,IC50,hERG; [11],20.4 µM
Cc1cccc(C)c1NC(=O)C1CCCCN1C (centres unmarked) [Mepivacaine],IC50,hERG; read-out: hERG IC50,> 100 µM and 156 µM
same,IC50,hERG; [11],156 µM
CCOc1cc(N)c(Cl)cc1C(=O)NCC1CN(Cc2ccc(F)cc2)CCO1 (centres unmarked) [Mosapride],affinity to WT hERG in FP assay,WT hERG,much weaker affinity
same,Percent current inhibition hERG WT,hERG WT [1],very small percentage
same,Percent current inhibition hERG Y652A,hERG Y652A [2],very small percentage
same,Percent current inhibition hERG F656A,hERG F656A [3],very small percentage
same,inhibition at 1 µM,hERG WT [4],13.1%
same,inhibition at 3 µM,hERG WT [4],33.5%
same,inhibition at 5 µM,hERG WT [4],45%
same,inhibition at 10 µM,hERG WT [4],68.7%
same,inhibition at 30 µM,hERG WT [4],92.5%
same,inhibition at 1 µM,hERG Y652A [5],7.13%
same,inhibition at 3 µM,hERG Y652A [5],13.6%
same,inhibition at 5 µM,hERG Y652A [5],20.6%
same,inhibition at 10 µM,hERG Y652A [5],31.3 ± 3.65%
same,inhibition at 30 µM,hERG Y652A [5],66.8%
same,inhibition at 1 µM,hERG F656A [6]; [12],11%
same,inhibition at 3 µM,hERG F656A [6]; [12],12.4%
same,inhibition at 5 µM,hERG F656A [6]; [12],16%
same,inhibition at 10 µM,hERG F656A [6]; [12],25.7%
same,inhibition at 30 µM,hERG F656A [6]; [12],34.4%
same,inhibition at 100 µM,hERG F656A [6]; [12],40.2%
same,inhibition at 1 µM,hERG F656A [6]; [13],2%
same,IC50,hERG; [14],4.8 µM
same,IC50,hERG WT [7],5.36 µM
same,IC50,hERG Y652A [8],17.4 µM
COc1cc(N)c(Cl)cc1C(=O)NC1CCN(CCCOc2ccc(F)cc2)CC1OC (centres unmarked) [Cisapride],binding affinity to 5HT-4 (agonist),[9],~ 14 nM
same,inhibition at 3 µM,hERG Y652A [5],39.1%
same,inhibition at 5 µM,hERG Y652A [5],57.7%
same,inhibition at 10 µM,hERG Y652A [5],91.7%
same,inhibition at 3 µM,hERG F656A [6]; [12],38.7%
same,inhibition at 5 µM,hERG F656A [6]; [12],59.6%
same,inhibition at 10 µM,hERG F656A [6]; [12],75.5%
same,inhibition at 1 µM,hERG F656A [6]; [13],~80%
COc1ccccc1OCC(O)CN1CCN(CC(=O)Nc2c(C)cccc2C)CC1 (centres unmarked) [Ranolazine],IC50,"hERG; read-out: hERG IC50 from literature, Patch clamp HEK293 cells @ 37 ± 1 °C, ref Du et al.",[…]
same,Percent current inhibition hERG WT,hERG WT [7]; 100 µM,97.36% ± 0.89
same,inhibition at 10 µM,"hERG WT [7]; human, HEK cells stably expressing hERG WT, Percent current inhibition hERG WT, 10 µM",42.3%
same,inhibition at 30 µM,"hERG WT [7]; human, HEK cells stably expressing hERG WT, Percent current inhibition hERG WT, 30 µM",77%
same,inhibition at 100 µM,"hERG WT [7]; human, HEK cells stably expressing hERG WT, Percent current inhibition hERG WT, 100 µM",~90%
same,inhibition at 300 µM,"hERG WT [7]; human, HEK cells stably expressing hERG WT, Percent current inhibition hERG WT, 300 µM",100%
same,inhibition at 500 µM,"hERG WT [7]; human, HEK cells stably expressing hERG WT, Percent current inhibition hERG WT, 500 µM",100%
same,Percent current inhibition hERG Y652A,hERG Y652A [8]; 100 µM,24.62% ± 2.64
same,inhibition at 10 µM,"hERG Y652A [8]; human, HEK cells stably expressing hERG Y652A, pH 7.4, Percent current inhibition hERG Y652A, 10 µM",2.4%
same,inhibition at 30 µM,"hERG Y652A [8]; human, HEK cells stably expressing hERG Y652A, pH 7.4, Percent current inhibition hERG Y652A, 30 µM",10.1%
same,inhibition at 100 µM,"hERG Y652A [8]; human, HEK cells stably expressing hERG Y652A, pH 7.4, Percent current inhibition hERG Y652A, 100 µM",25%
same,inhibition at 300 µM,"hERG Y652A [8]; human, HEK cells stably expressing hERG Y652A, pH 7.4, Percent current inhibition hERG Y652A, 300 µM",64%
same,inhibition at 500 µM,"hERG Y652A [8]; human, HEK cells stably expressing hERG Y652A, pH 7.4, Percent current inhibition hERG Y652A, 500 µM",84.6%
same,Percent current inhibition hERG F656A,hERG F656A [10]; 100 µM,21.37% ± 7.80
same,inhibition at 10 µM,"hERG F656A [10]; human, HEK cells stably expressing hERG F656A, pH 7.4, Percent current inhibition hERG F656A, 10 µM",4.39%
same,inhibition at 30 µM,"hERG F656A [10]; human, HEK cells stably expressing hERG F656A, pH 7.4, Percent current inhibition hERG F656A, 30 µM",10.9%
same,inhibition at 300 µM,"hERG F656A [10]; human, HEK cells stably expressing hERG F656A, pH 7.4, Percent current inhibition hERG F656A, 300 µM",37.7%
same,inhibition at 500 µM,"hERG F656A [10]; human, HEK cells stably expressing hERG F656A, pH 7.4, Percent current inhibition hERG F656A, 500 µM",49.6%
